Measurements taken from paper PMC9120017, “Inhibition mechanism of the chloride channel TMEM16A by the pore blocker 1PBC” (Nature Communications, 2022).
Read-outs that look alike come from different tables or passages of the source.

Biological target: T1, mouse TMEM16A mutant G510P (Mus musculus, UniProt Q8BHY3, G510P)
T1 construct: expressed in transfected cells; host or cells: HEK293T
T1 sequence (Q8BHY3 1-960 G510P): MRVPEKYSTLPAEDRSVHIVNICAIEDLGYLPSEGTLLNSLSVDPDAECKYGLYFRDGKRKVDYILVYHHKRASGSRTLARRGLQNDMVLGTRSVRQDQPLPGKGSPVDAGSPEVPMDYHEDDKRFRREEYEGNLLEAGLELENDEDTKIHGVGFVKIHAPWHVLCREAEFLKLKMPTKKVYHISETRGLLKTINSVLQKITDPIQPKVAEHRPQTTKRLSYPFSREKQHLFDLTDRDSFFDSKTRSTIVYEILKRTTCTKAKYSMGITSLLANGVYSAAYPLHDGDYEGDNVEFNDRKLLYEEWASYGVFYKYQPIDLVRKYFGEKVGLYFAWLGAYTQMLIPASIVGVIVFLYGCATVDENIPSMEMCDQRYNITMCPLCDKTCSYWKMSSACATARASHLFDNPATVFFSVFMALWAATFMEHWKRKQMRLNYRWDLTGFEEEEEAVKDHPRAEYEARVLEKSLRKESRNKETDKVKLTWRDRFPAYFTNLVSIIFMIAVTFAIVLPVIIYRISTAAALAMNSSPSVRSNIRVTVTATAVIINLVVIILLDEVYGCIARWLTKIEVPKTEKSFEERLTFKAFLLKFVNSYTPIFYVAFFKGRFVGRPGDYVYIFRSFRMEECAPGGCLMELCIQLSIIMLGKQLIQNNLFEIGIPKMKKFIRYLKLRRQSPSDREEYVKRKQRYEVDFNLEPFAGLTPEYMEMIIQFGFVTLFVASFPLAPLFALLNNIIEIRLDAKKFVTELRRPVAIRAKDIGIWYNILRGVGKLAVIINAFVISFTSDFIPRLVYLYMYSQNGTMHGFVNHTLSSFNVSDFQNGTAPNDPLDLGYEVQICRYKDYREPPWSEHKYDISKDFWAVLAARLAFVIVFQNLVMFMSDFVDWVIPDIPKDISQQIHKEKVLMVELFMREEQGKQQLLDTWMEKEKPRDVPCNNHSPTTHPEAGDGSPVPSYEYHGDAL
Assay: Inside-out patch recording of 1PBC block, mutant G510P
Format: cell-based
Conditions: for remaining activity at 3 µM: 1PBC 3; for remaining activity at 3 µM / remaining activity at 10 µM / remaining activity at 30 µM / remaining activity at 100 µM: read-out: fraction of unblocked current; for remaining activity at 10 µM: 1PBC 10; for remaining activity at 30 µM: 1PBC 30; for remaining activity at 100 µM: 1PBC 100
Description: HEK293T cells (ATCC CRL-1573) were maintained in Dulbecco’s modified Eagle’s medium (DMEM; Sigma-Aldrich) supplemented with 10 U ml^−1 penicillin, 0.1 mg ml^−1 streptomycin (Sigma-Aldrich), 2 mM L-glutamine (Sigma-Aldrich), and 10% FBS (Sigma-Aldrich) in a humidified atmosphere containing 5% CO2 at 37 °C. HEK293S GnTI^− cells (ATCC CRL-3022) were maintained in HyClone HyCell TransFx-H medium (GE Healthcare) supplemented with 10 U ml^−1 penicillin, 0.1 mg ml^−1 streptomycin, 4 mM L-glutamine, 0.15% poloxamer 188 (Sigma-Aldrich), and 1% FBS in an atmosphere containing 5% CO2 at 185 rpm at 37 °C. The ac splice variant of mouse TMEM16A (UniProt ID: Q8BHY3), mouse TMEM16B (UniProt ID: Q8CFW1), or mouse TMEM16F (UniProt ID: Q6P9J9) bearing a 3C cleavage site, a Venus YFP, a Myc tag, and a Streptavidin-binding peptide (SBP) downstream of the open reading frame in a modified pcDNA3.1 vector (Invitrogen) were used as described previously[21],[31]. Mutations were introduced using a modified QuikChange method[58] and were verified by sequencing.
HEK293T cells were transfected with 3–4 μg DNA per 6 cm Petri dish using the calcium phosphate co-precipitation method and were used within 24–96 h after transfection. Recordings were performed on inside-out patches excised from HEK293T cells expressing the construct of interest. Patch pipettes were pulled from borosilicate glass capillaries (O.D. 1.5 mm, I.D. 0.86 mm, Sutter Instrument) and were fire-polished with a microforge (Narishige) before use. Pipette resistance was typically 3–8 MΩ when filled with the recording solutions detailed below. Seal resistance was typically 4 GΩ or higher. Voltage-clamp recordings were made using Axopatch 200B, Digidata 1550, and Clampex 10.7 (Molecular Devices). Analog signals were filtered with the in-built 4-pole Bessel filter at 10 kHz and were digitized at 20 kHz. Solution exchange was achieved using a gravity-fed system through a theta glass pipette mounted on an ultra-fast piezo-driven stepper (Siskiyou). […] All recordings were performed at 20 °C.
A symmetrical ionic condition was used throughout. Stock solution with Ca^2+-EGTA contained 150 mM NaCl, 5.99 mM Ca(OH)2, 5 mM EGTA, and 10 mM HEPES at pH 7.40. Stock solution with EGTA contained 150 mM NaCl, 5 mM EGTA, and 10 mM HEPES at pH 7.40. Free Ca^2+ concentrations were adjusted by mixing the stock solutions at the required ratios calculated using the WEBMAXC program (http://web.stanford.edu/~cpatton/webmaxcS.htm). Patch pipettes were filled with the stock solution with Ca^2+-EGTA, which has a free Ca^2+ concentration of 1 mM. 1PBC (ChemBridge) stock was reconstituted in anhydrous DMSO (Sigma-Aldrich) at 100 mM and stored at −20 °C. Working solutions with 1PBC were prepared by serial dilution. Unless otherwise stated, experiments were performed at a saturating Ca^2+ concentration as shown in Supplementary Table 1 and the primary data were corrected for current rundown as described previously[21],[25].
Concentration-response relations, obtained from the ratio of the I-V plots before and after the application of the blocker, were fitted to the Hill equation,1 I/Imax=1/1+IC50/[blocker]^h where I/Imax is the normalized current responses, IC50 defines the concentration at which inhibition is at its half-maximum, and h is the Hill coefficient.

N#Cc1c(C(F)(F)F)cc(O)n2c1nc1ccccc12 [1PBC]
IC50 (0 mV, 15 µM Ca2+): 65.7 µM | I/Imax_+80mV (3 μM 1PBC): 0.9738 | I/Imax_-80mV (3 μM 1PBC, -80 mV): 0.9802 | I/Imax_+80mV (10 μM 1PBC): 0.8477 | I/Imax_-80mV (10 μM 1PBC, -80 mV): 0.885 | I/Imax_+80mV (30 μM 1PBC): 0.6076 | I/Imax_-80mV (30 μM 1PBC, -80 mV): 0.6861 | I/Imax_+80mV (100 μM 1PBC): 0.3872 | I/Imax_-80mV (100 μM 1PBC, -80 mV): 0.4945 | remaining activity at 3 µM (0 mV): 95.8% | remaining activity at 3 µM (20 mV): 95.6% | remaining activity at 3 µM (40 mV): 96.9% | remaining activity at 3 µM (60 mV): 95.5% | remaining activity at 3 µM (80 mV): 97.4% | remaining activity at 3 µM (100 mV): 99.8% | remaining activity at 3 µM (120 mV): 99.8% | remaining activity at 3 µM (140 mV): 104% | remaining activity at 3 µM (-20 mV): 96% | remaining activity at 3 µM (-40 mV): 97.4% | remaining activity at 3 µM (-60 mV): 99% | remaining activity at 3 µM (-80 mV): 98% | remaining activity at 3 µM (-100 mV): 97.4% | remaining activity at 3 µM (-120 mV): 96.4% | remaining activity at 3 µM (-140 mV): 96% | remaining activity at 10 µM (0 mV): 86.9% | remaining activity at 10 µM (20 mV): 85.8% | remaining activity at 10 µM (40 mV): 85% | remaining activity at 10 µM (60 mV): 84.7% | remaining activity at 10 µM (80 mV): 84.8% | remaining activity at 10 µM (100 mV): 86% | remaining activity at 10 µM (120 mV): 86.5% | remaining activity at 10 µM (140 mV): 87.9% | remaining activity at 10 µM (-20 mV): 88% | remaining activity at 10 µM (-40 mV): 90.2% | remaining activity at 10 µM (-60 mV): 89.1% | remaining activity at 10 µM (-80 mV): 88.5% | remaining activity at 10 µM (-100 mV): 89.4% | remaining activity at 10 µM (-120 mV): 88.8% | remaining activity at 10 µM (-140 mV): 89% | remaining activity at 30 µM (0 mV): 64.5% | remaining activity at 30 µM (20 mV): 64.5% | remaining activity at 30 µM (40 mV): 63.6% | remaining activity at 30 µM (60 mV): 62.9% | remaining activity at 30 µM (80 mV): 60.8% | remaining activity at 30 µM (100 mV): 62.7% | remaining activity at 30 µM (120 mV): 62.8% | remaining activity at 30 µM (140 mV): 65.9% | remaining activity at 30 µM (-20 mV): 64.6% | remaining activity at 30 µM (-40 mV): 66.2% | remaining activity at 30 µM (-60 mV): 68.7% | remaining activity at 30 µM (-80 mV): 68.6% | remaining activity at 30 µM (-100 mV): 69.3% | remaining activity at 30 µM (-120 mV): 71.3% | remaining activity at 30 µM (-140 mV): 73.4% | remaining activity at 100 µM (0 mV): 43.2% | remaining activity at 100 µM (20 mV): 42.1% | remaining activity at 100 µM (40 mV): 40.7% | remaining activity at 100 µM (60 mV): 40.1% | remaining activity at 100 µM (80 mV): 38.7% | remaining activity at 100 µM (100 mV): 39.6% | remaining activity at 100 µM (120 mV): 40.6% | remaining activity at 100 µM (140 mV): 42.9% | remaining activity at 100 µM (-20 mV): 44.4% | remaining activity at 100 µM (-40 mV): 47.1% | remaining activity at 100 µM (-60 mV): 49.1% | remaining activity at 100 µM (-80 mV): 49.4% | remaining activity at 100 µM (-100 mV): 50.5% | remaining activity at 100 µM (-120 mV): 52.6% | remaining activity at 100 µM (-140 mV): 52.8% | IC50 (20 mV, 15 µM Ca2+): 63.2 µM | IC50 (40 mV, 15 µM Ca2+): 60.2 µM | IC50 (60 mV, 15 µM Ca2+): 58.2 µM | IC50 (80 mV, 15 µM Ca2+): 54.9 µM | IC50 (100 mV, 15 µM Ca2+): 59.3 µM | IC50 (120 mV, 15 µM Ca2+): 60.9 µM | IC50 (140 mV, 15 µM Ca2+): 69.5 µM | IC50 (-20 mV, 15 µM Ca2+): 68.2 µM | IC50 (-40 mV, 15 µM Ca2+): 76.6 µM | IC50 (-60 mV, 15 µM Ca2+): 83.4 µM | IC50 (-80 mV, 15 µM Ca2+): 83.4 µM | IC50 (-100 mV, 15 µM Ca2+): 87.4 µM | IC50 (-120 mV, 15 µM Ca2+): 94.4 µM | IC50 (-140 mV, 15 µM Ca2+): 98.6 µM | IC50 (G510P, V 0 mV): 65.7 µM | IC50 (G510P, V 20 mV): 63.2 µM | IC50 (G510P, V 40 mV): 60.2 µM | IC50 (G510P, V 60 mV): 58.2 µM | IC50 (G510P, V 80 mV): 54.9 µM | IC50 (G510P, V 100 mV): 59.3 µM | IC50 (G510P, V 120 mV): 60.9 µM | IC50 (G510P, V 140 mV): 69.5 µM | IC50 (G510P, V -20 mV): 68.2 µM | IC50 (G510P, V -40 mV): 76.6 µM | IC50 (G510P, V -60 mV): 83.4 µM | IC50 (G510P, V -80 mV): 83.4 µM | IC50 (G510P, V -100 mV): 87.4 µM | IC50 (G510P, V -120 mV): 94.4 µM | IC50 (G510P, V -140 mV): 98.6 µM
